In general, IC50 refers to the point on the concentration scale where inhibition reaches its midpoint. A low value points to higher potency. One may read the EC50 as the concentration needed to bring the measured effect to its halfway point. Higher therefore signals a need for much substance.

This passage reports IC50, EC50 and Ratio results from ChEMBL document CHEMBL1141415, “Design, synthesis, and crystal structure of hydroxyethyl secondary amine-based peptidomimetic inhibitors of human beta-secretase” (J Med Chem, 2007).

One assay has as its target Beta-secretase 1 (Homo sapiens, UniProt P56817). Description: Inhibition of human BACE1 by MBPC125Swe assay. Type of assay: cell-based.
For assay [1], the target named is T1, Beta-secretase (BACE) (Homo sapiens, UniProt Q9Y5Z0+P56817). In words: Inhibition of beta amyloid production in human HEK293 cells. Type of assay: functional, cell-based.
For assay [2], the target named is T1, Beta-secretase (BACE). In words: Ratio of EC50 for beta amyloid to IC50 for BACE1. It counts as functional.

Beta-secretase 1, sequence (P56817 whole entry): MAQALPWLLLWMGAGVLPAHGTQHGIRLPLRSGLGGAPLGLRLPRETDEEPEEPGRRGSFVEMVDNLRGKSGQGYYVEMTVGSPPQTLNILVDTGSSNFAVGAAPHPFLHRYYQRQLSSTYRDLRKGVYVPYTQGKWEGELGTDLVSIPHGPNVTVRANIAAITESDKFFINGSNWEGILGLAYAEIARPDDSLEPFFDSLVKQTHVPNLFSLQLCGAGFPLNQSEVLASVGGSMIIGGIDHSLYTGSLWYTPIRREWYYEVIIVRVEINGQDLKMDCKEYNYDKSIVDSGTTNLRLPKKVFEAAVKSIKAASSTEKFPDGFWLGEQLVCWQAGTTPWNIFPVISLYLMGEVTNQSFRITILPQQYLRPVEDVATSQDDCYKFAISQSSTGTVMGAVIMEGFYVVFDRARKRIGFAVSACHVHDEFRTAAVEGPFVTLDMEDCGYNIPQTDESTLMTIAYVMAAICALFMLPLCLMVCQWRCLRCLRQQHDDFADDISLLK
T1 sequence (P56817 whole entry, looked up): as the sequence (P56817 whole entry) above
T1 sequence (Q9Y5Z0 whole entry, looked up): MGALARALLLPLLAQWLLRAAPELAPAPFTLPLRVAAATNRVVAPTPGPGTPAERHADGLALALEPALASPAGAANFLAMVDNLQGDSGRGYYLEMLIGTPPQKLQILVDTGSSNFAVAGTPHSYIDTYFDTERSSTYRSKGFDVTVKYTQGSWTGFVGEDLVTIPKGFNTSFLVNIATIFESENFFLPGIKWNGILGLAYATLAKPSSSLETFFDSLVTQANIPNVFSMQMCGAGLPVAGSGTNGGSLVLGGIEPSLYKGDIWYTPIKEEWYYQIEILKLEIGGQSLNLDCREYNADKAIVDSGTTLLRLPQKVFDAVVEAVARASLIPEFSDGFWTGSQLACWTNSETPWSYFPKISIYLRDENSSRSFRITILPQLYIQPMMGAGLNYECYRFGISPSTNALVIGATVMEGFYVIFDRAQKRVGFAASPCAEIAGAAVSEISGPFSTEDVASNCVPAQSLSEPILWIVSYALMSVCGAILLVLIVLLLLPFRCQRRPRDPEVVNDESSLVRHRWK

Consider `CCCN(CCC)C(=O)c1cccc(C(=O)N[C@@H](Cc2cc(F)cc(F)c2)[C@H](O)CN[C@H](C)C(=O)NCC(C)C)c1`, for which the IC50 at Beta-secretase 1 is 0.5 µM. This molecule also came in with an EC50 at Beta-secretase (BACE) [1] of 0.6 µM.
Molecule `CCCN(CCC)C(=O)c1cc(C)cc(C(=O)N[C@@H](Cc2cc(F)cc(F)c2)[C@H](O)CN[C@@H](C)C(=O)NCC(C)C)c1` had an IC50 on Beta-secretase 1 of 0.07 µM. The EC50 on Beta-secretase (BACE) [1] came to 0.08 µM.
Regarding `CCCN(CCC)C(=O)c1cccc(C(=O)N[C@@H](Cc2cc(F)cc(F)c2)[C@H](O)CN[C@@H](C)C(=O)NCC(C)C)c1`, half-maximal inhibition against Beta-secretase 1 (IC50) required 0.13 µM. The EC50 at Beta-secretase (BACE) [1] was 0.23 µM. In addition, the Ratio on Beta-secretase (BACE) [2] was 1.
As for `CCCN(CCC)C(=O)c1cc(C)cc(C(=O)N[C@@H](Cc2cc(F)cc(F)c2)[C@H](O)CNC(C)(C)C(=O)NCC(C)C)c1`, the EC50 on Beta-secretase (BACE) [1] came out at 0.23 µM.
On Beta-secretase 1, `CCCN(CCC)C(=O)c1cc(C)cc(C(=O)N[C@@H](Cc2cc(F)cc(F)c2)[C@H](O)CNCc2ccccc2)c1` showed an IC50 of 0.13 µM. For the same molecule, the EC50 on Beta-secretase (BACE) [1] worked out at 0.04 µM. Also, on Beta-secretase (BACE) [2], the Ratio was 0.3.
